Results taken from US4000151A, “Triazolyl benzophenone compounds” (priority 1975, dated 1976).

Tests used:
Type in all cases: in vivo
[1] = tested on: mice; test: Chimney test (mice back up and out of a vertical glass cylinder within 30 seconds); conditions: Mus musculus
Protocol: (§1) Sedative effects of 8-chloro-1-methyl-6-phenyl-4H-s-triazolo[ 4,3-a][ 1,4]benzodiazepine (a final product conforming to formula VII) are shown by the following tests in mice: […]
Chimney test: [Med. Exp. 4, 145 (1961)]: The effective intraperitoneal dosage for 50% of the mice (ED50) is 0.09 mg./kg.; the oral ED50 is 0.6 mg./kg. The test determines the ability of mice to back up and out of a vertical glass cylinder within 30 seconds. At the effective dosage, 50% of the mice failed doing it.

[2] = tested on: mice; test: Dish test (mice remaining in Petri dish for more than 3 minutes); conditions: Mus musculus; Table II, route not given
Protocol: as §1
Dish test: Mice in Petri dishes (10 cm. diameter, 5 cm. high, partially embedded in wood shavings), climb out in a very short time, when not treated. Mice remaining in the dish for more than 3 minutes indicates tranquilization. ED50 equals the dose of the test compound at which 50% of the mice remain in the dish.

[3] = tested on: mice; test: Pedestal test (mice staying on the pedestal for more than 1 minute); conditions: Mus musculus; Table II, route not given
Protocol: as §1
Pedestal test; The untreated mouse leaves the pedestal in less than a minute to climb back to the floor of the standard mouse box. Tranquilized mice will stay on the pedestal for more than 1 minute. The ED50 (oral administration) is 0.9 mg./kg.

[4] = tested on: mice; test: Nicotine antagonism test; conditions: Mus musculus; Table II, route not given
Protocol: Nicotine antagonism test: Mice in a group of 6 are injected with the test compound (8-chloro-1-methyl-6-phenyl-4H-s-triazolo[ 4,3-a][ 1,4]benzodiazepine). Thirty minutes later the mice, including control (untreated) mice are injected with nicotine salicylate (2 mg./kg.). The control mice show overstimulation, i.e., (1) running convulsions followed by (2) tonic extensor fits, followed by (3) death.

SMILES	ED50 ([1]; Table II, route not given, read-out: ED50 Ch)	ED50 [2]	ED50 [3]	ED50 [4]	ED50 ([1]; mice, oral, read-out: oral ED50, chimney test)
Cc1nncn1-c1ccc(Cl)cc1C(=O)c1ccccc1 [5-Chloro-2-(3-methyl-4H-1,2,4-triazol-4-yl)benzophenone]	28 mg/kg	23 mg/kg	20 mg/kg	20 mg/kg	–
Cc1nnc2n1-c1ccc(Cl)cc1C(c1ccccc1)=NC2 [8-Chloro-1-methyl-6-phenyl-4H-s-triazolo[4,3-a][1,4]benzodiazepine]	–	–	–	–	0.6 mg/kg
